In patent publication US20160130224A1, “Novel Pyrrole Derivatives” (priority 2013, published 2016):
pIC50: −log10 of the molar value. Structures can show the parent of a compound that is named as a salt. Where two headings read alike, the source gives them in different places.

Legend:
[1] = Chemical stability assessment in PBS at 37.5° C. (HPLC); format: physicochemical; conditions: buffer, pH 6.2, read-out: Chemical stability at pH 6.2-7.2 (t1/2) (converted)
Description: Stability studies were carried out by dissolving 1-2 mg of compound in DMSO (1 mL) followed by addition of 0.4 mL of the resulting solution to stirred PBS solution (9.6 mL) at 37.5° C. A sample (ca. 0.5 mL) was immediately taken for HPLC analysis. Further samples were then taken for analysis at various timepoints thereafter. Half-lives were determined from the decrease in concentration of compound with respect to time.
Stability studies were performed by dissolving 1-2 mg of compound in DMSO (1 ml) followed by addition of 0.4 ml of the resulting solution to stirred PBS (9.6 ml) at 37.5° C. A sample (˜0.5 ml) was immediately taken for HPLC analysis. Further samples were then taken for analysis at various time-points thereafter. Half-lives were determined from the decrease in concentration of compound with respect to time.

[2] = Solubility testing in PBS or 0.9% saline; format: physicochemical; conditions: for solubility: aqueous buffer, thermodynamic from solid, PBS
Description: Solubility studies were performed by charging a vial with 5-10 mg of compound followed by the 40 addition of PBS solution or 0.9% saline to achieve a concentration of 100 mg/ml. If solubility was not observed the solution was diluted to concentrations of 50 mg/ml, 25 mg/ml and 4 mg/ml consecutively until complete solubility was observed.

[3] = biological target: pneumolysin (Streptococcus pneumoniae serotype 2, UniProt Q04IN8); experiment: Inhibition of the haemolytic activity of pneumolysin (sheep erythrocytes); format: cell-based
Description: The basis of this assay is that when pneumolysin is added to red blood cells, it induces their lysis and leads to the release of haemoglobin. In the presence of an inhibitory compound, pneumolysin-induced lysis is abolished, the red blood cells pellet at the bottom of the microtitre plate well and the supernatant is clear. However, if the compound is not inhibitory, the red blood cells are lysed and haemoglobin is released into the supernatant.
Test compound solutions (typically at 5 mM in DMSO) were diluted 1:1 in 100% DMSO. The compounds were then two-fold serially diluted in 100% DMSO across 11 wells of 96-well round-bottomed microtitre plate. PBS was then added to all the wells to achieve a 1:10 dilution of the compound in PBS. Pneumolysin was then added at a concentration equal to its LD100. Plates were then incubated at 37° C. for 30-40 min. After the incubation period, an equal volume of 4% (v/v) sheep erythrocyte suspension was added to each well and the plates incubated again at 37° C., for at least 30 min. Controls with only erythrocytes in PBS (control for no lysis) or erythrocytes plus pneumolysin (control for lysis) were prepared following the same procedure. Following the incubation with the erythrocytes, the Absorbance at 595 nm of each well was measured and the data used to determine the IC50 for each test compound. The IC50 values were determined using non-linear regression curve fitting. For that, the Log of the concentrations of the test compound was plotted against the percentage inhibition, estimated from the A595 values, followed by fitting a Hill Slope to the data.

[4] = Conversion of prodrug to parent active compound in mouse plasma (LC-MS/MS); format: in vitro ADME; conditions: 37° C., 10 μM start; for [ ] (μM) Prodrug remaining, t0 min.: 0 min; for [ ] (μM) Prodrug remaining, t15 min.: 15 min; for [ ] (μM) Prodrug remaining, t30 min.: 30 min; for [ ] (μM) Prodrug remaining, t60 min.: 60 min; for [ ] (μM) Prodrug remaining, t120 min.: 120 min
Description: (§1) The samples were then analysed by LC-MS/MS to obtain the amount of parent active compound appearing and prodrug derivative remaining over time.
(§2) Prodrug derivatives were assessed in the mouse, rat or human plasma stability assay at a concentration of 10 μM. Test compounds were diluted in DMSO to a final stock concentration of 10 mM. For the purpose of the assay, the stocks prepared were further diluted in DMSO to a concentration of 400 μM and 5 μL were added to 195 μL of mouse, rat or human plasma (pH 7.4) and then incubated at 37° C. The final concentration of DMSO in the plate was 2.5% (v/v). Reactions were terminated at 0, 15, 30, 60 and 120 min after incubation by adding 400 μl of acetonitrile containing 0.55 μM metoprolol and 1% (v/v) formic acid. The plate was then centrifuged at 3000 rpm, for 45 min, at 4° C. 80 μL of supernatant were transferred into a conical bottom 96 well glass coated plate. 40 μL of water were added prior to analysis for prodrug derivative and active species by LC-MS/MS. This assay was performed by a contract research organisation, Cyprotex Discovery Limited, UK, at the request of the inventors at Leicester.
(§3) (1) The parent active compound was quantified using a 6 point calibration curve prepared in deactivated mouse, rat or human plasma. (2) The percentage of prodrug compound remaining at each time point relative to 0 min sample was calculated from LC-MS/MS peak area ratios (compound peak area/internal standard peak area). This percentage was then used to determine the concentration of the prodrug compound at each time point in reference to the starting concentration (10 μM) at time 0 min.

[5] = Conversion of prodrug to parent active compound in human plasma (LC-MS/MS); format: in vitro ADME; conditions: 37° C., 10 μM start; for [ ] (μM) Prodrug remaining, t0 min.: 0 min; for [ ] (μM) Prodrug remaining, t15 min.: 15 min; for [ ] (μM) Prodrug remaining, t30 min.: 30 min; for [ ] (μM) Prodrug remaining, t60 min.: 60 min
Description: as §1, §2, §3

[6] = Conversion of prodrug to parent active compound in rat plasma (LC-MS/MS); format: in vitro ADME; conditions: 37° C., 10 μM start; for [ ] (μM) Prodrug remaining, t0 min.: 0 min; for [ ] (μM) Prodrug remaining, t15 min.: 15 min; for [ ] (μM) Prodrug remaining, t30 min.: 30 min; for [ ] (μM) Prodrug remaining, t60 min.: 60 min; for [ ] (μM) Prodrug remaining, t120 min.: 120 min
Description: as §1, §2, §3

Chain of pneumolysin (Q04IN8 whole entry): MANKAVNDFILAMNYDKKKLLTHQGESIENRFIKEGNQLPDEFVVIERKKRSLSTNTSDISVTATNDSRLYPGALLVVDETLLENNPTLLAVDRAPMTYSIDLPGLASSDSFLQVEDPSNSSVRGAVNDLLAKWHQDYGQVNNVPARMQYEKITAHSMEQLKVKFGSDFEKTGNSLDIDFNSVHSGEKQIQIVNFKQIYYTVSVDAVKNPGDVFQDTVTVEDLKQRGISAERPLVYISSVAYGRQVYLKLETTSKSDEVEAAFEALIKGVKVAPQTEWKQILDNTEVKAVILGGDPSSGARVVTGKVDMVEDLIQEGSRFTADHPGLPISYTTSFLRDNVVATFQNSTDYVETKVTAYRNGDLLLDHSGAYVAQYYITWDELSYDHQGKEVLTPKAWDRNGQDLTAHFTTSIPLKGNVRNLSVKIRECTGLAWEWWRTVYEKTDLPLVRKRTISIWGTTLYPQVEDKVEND

Compound	half-life [1] [h]	pIC50 [3]	[ ] (μM) Prodrug remaining, t0 min. [4] [µM]	[ ] (μM) Prodrug remaining, t15 min. [4] [µM]	[ ] (μM) Prodrug remaining, t30 min. [4] [µM]	[ ] (μM) Prodrug remaining, t60 min. [4] [µM]	[ ] (μM) Prodrug remaining, t120 min. [4] [µM]	further results
CCOC(=O)c1c(O)c(O)c(C(=O)N(C)C)n1-c1ccc(OC)cc1 [UL1-012, Ethyl 5-(dimethylcarbamoyl)-3,4-dihydroxy-1-(4-methoxyphenyl)-1H-pyrrole-2-carboxylate]	1.02	–	–	–	–	–	–	Solubility in 0.9% (w/v) saline, pH 6.5 or PBS pH 7.2 ([2]; result in words): Not soluble; pIC50 ([3]; Table 1, pneumolysin at LD100, sheep erythrocytes, 37° C., read-out: IC50): 6.70; pIC50 ([3]; Table 2, pneumolysin at LD100, sheep erythrocytes, 37° C., read-out: IC50): 6.70
COc1ccc(-n2c(C(=O)N(C)C)c(O)c(O)c2C(=O)N2CCN(C)CC2)cc1 [UL1-027, 3,4-Dihydroxy-1-(4-methoxyphenyl)-N,N-dimethyl-5-(4-methylpiperazine-1-carbonyl)-1H-pyrrole-2-carboxamide]	–	6.70	–	–	–	–	–	–
COc1ccc(-n2c(C(=O)N(C)C)c(OC(=O)C(C)C)c(OC(=O)C(C)C)c2C(=O)N(C)C)cc1 [UL1-114, 2,5-Bis(dimethylcarbamoyl)-1-(4-methoxyphenyl)-1H-pyrrole-3,4-diyl bis(2-methylpropanoate)]	–	4.71	–	–	–	–	–	–
COc1ccc(-n2c(C(=O)N(C)C)c(OC(=O)C(C)C)c(OC(=O)C(C)C)c2C(=O)N2CCN(C)CC2)cc1.Cl [UL6-002, 2-(Dimethylcarbamoyl)-1-(4-methoxyphenyl)-5-(4-methylpiperazine-1-carbonyl)-1H-pyrrole-3,4-diyl bis(2-methylpropanoate) hydrochloride]	–	5.70	10.00	0.00	0.00	0.02	0.00	–
COc1ccc(-n2c(C(=O)N(C)C)c(OC(=O)C(C)(C)C)c(OC(=O)C(C)(C)C)c2C(=O)N2CCN(C)CC2)cc1 [UL6-004, 2-(Dimethylcarbamoyl)-1-(4-methoxyphenyl)-5-(4-methylpiperazine-1-carbonyl)-1H-pyrrole-3,4-diyl bis(2,2-dimethylpropanoate) hydrochloride]	–	5.80	10.00	10.00	9.88	9.80	9.63	–
COc1ccc(-n2c(C(=O)N(C)C)c(OC(=O)c3cccc(COP(=O)(O)O)c3)c(OC(=O)c3cccc(COP(=O)(O)O)c3)c2C(=O)N(C)C)cc1.[Na+].[Na+] [UL6-006, Sodium ((((2,5-bis(dimethylcarbamoyl)-1-(4-methoxyphenyl)-1H-pyrrole-3,4-diyl)bis(oxy))bis(carbonyl))bis(3,1-phenylene))bis(methylene) bis(hydrogenphosphate)]	29.5	6.52	10.00	2.05	0.79	0.10	0.04	solubility ([2]; pH 5-6): ≥ 50 mg/mL; [ ] (μM) Prodrug remaining, t0 min. [5]: 10.00 µM; [ ] (μM) Prodrug remaining, t15 min. [5]: 2.15 µM; [ ] (μM) Prodrug remaining, t30 min. [5]: 0.05 µM; [ ] (μM) Prodrug remaining, t60 min. [5]: 0.01 µM; [ ] (μM) Prodrug remaining, t0 min. [6]: 10.00 µM; [ ] (μM) Prodrug remaining, t15 min. [6]: 8.90 µM; [ ] (μM) Prodrug remaining, t30 min. [6]: 1.17 µM; [ ] (μM) Prodrug remaining, t60 min. [6]: 0.21 µM; [ ] (μM) Prodrug remaining, t120 min. [6]: 0.07 µM
CCOC(=O)c1c(OC(=O)c2ccc(COP(=O)([O-])O)cc2)c(OC(=O)c2ccc(COP(=O)([O-])O)cc2)c(C(=O)N(C)C)n1-c1ccc(OC)cc1.[Na+].[Na+] [UL6-008, Sodium ((((2-(dimethylcarbamoyl)-5-(ethoxycarbonyl)-1-(4-methoxyphenyl)-1H-pyrrole-3,4-diyl)bis(oxy))bis(carbonyl))bis(4,1-phenylene))bis(methylene) bis(hydrogenphosphate)]	144	5.72	10.00	4.53	1.70	0.47	0.09	solubility ([2]; pH 6): ≥ 100 mg/mL; [ ] (μM) Prodrug remaining, t0 min. [5]: 10.00 µM; [ ] (μM) Prodrug remaining, t15 min. [5]: 4.89 µM; [ ] (μM) Prodrug remaining, t30 min. [5]: 5.10 µM; [ ] (μM) Prodrug remaining, t60 min. [5]: 6.06 µM; [ ] (μM) Prodrug remaining, t120 min. ([5]; 120 min): 4.52 µM; [ ] (μM) Prodrug remaining, t0 min. [6]: 10.00 µM; [ ] (μM) Prodrug remaining, t15 min. [6]: 2.90 µM; [ ] (μM) Prodrug remaining, t30 min. [6]: 1.00 µM; [ ] (μM) Prodrug remaining, t60 min. [6]: 0.21 µM; [ ] (μM) Prodrug remaining, t120 min. [6]: 0.07 µM
